Reference: US20240239790A1, “7-Morpholino-1,6-Naphthyridin-5-yl Derivatives and Pharmaceutical Compositions Thereof Useful as DNA-PK Inhibitor” (adMare Therapeutics Society, priority 2021, published 2024)
Read-outs that look alike come from different tables or passages of the source.

Key:
[1] = target: T1, DNA-PK phosphorylation at Serine 2056 (Homo sapiens, UniProt P78527); assay: Cellular Assay for Inhibition of DNA-PK Phosphorylation at Serine 2056 in FaDu cells (sandwich ELISA, neocarzinostatin); format: cell-based; details: pSer2056 DNA-PK, Table 3
T1 construct: FaDu cells were purchased from ATCC; host or cells: FaDu
Method in brief: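 FaDu cells pre-treated with compound (0.3% DMSO) for 1 h, then neocarzinostatin 1 μg/mL final added for 2 h to induce DSBs. Protein-normalised lysates read by sandwich ELISA for total and pSer2056 DNA-PK; % inhibition normalised between DMSO and NCS controls, IC50 from variable-slope log(inhibitor) fit.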

[2] = system: pH2AX induction in HCT116 ATM-/- multicellular tumour spheroids; assay: Prodrug Radiation Sensitization in Multicellular Tumour Spheroids, inhibition of pH2AX induction following radiation; format: cell-based; details: Homo sapiens, HCT-116, 20 Gy
Description: Prodrug compounds were assayed to determine their potency in 3D multicellular spheroids in media maintained under 20% vs 5% oxygen. Multicellular tumour spheroids were grown to approximately 0.5 mm in diameter and irradiated with 20 Gy in combination with inhibitor test compounds to determine their potency using HCT 116 and FaDu cell lines. Experiments were carried out in 96 well plates containing 0.7 mls of MEM media containing 10% FBS and 10 mM glucose under 5% CO2 at 37° C. Following dilution of compounds 1:1000 from DMSO stocks, compounds were serially diluted from 10 μM down to 3.5 nM and 5-10 spheroids added. 96 well plates were constantly stirred to avoid spheroids settling during the course of the experiment. Endpoints were pDNA-PK (ser 2056) or pH2AX (ser 139) status in spheroid cryosections taken 1 or 2 hours following radiation and fixed immediately in formalin. Using tumour cell lines deficient in ATM improved the assay signal to noise and gH2AX readout. Using this assay prodrug activity could be compared in the more oxygenated outer spheroid layers versus less oxygenated hypoxic central cell layers.

FaDu cell line = assay: Prodrug Activation in Hypoxic Stirred Tumour Cell Suspensions; details: 10 μM, 4 hours
[3] = 5% O2, inner layers, read-out: Prodrug 5% O2 Inner layers EC50
[4] = 5% O2, outer layers, read-out: Prodrug 5% O2 Outer layers EC50
[5] = 20% O2, outer layers, read-out: Prodrug 20% O2 Outer layers EC50

SMILES	IC50 [1] [µM]	EC50 [2, 3] [nM]	EC50 [2, 4] [nM]	EC50 [2, 5] [nM]	Fraction of prodrug converted to active form, Hypoxic 0.2% O2 (FaDu cell line)	Fraction of prodrug converted to active form, Oxic 5% O2 (FaDu cell line)
CC(c1cnn(C)c1[N+](=O)[O-])N(c1cnc2cc(N3CCOCC3)nc(OC3CCC(Nc4ccn5nccc5n4)CC3)c2c1)S(C)(=O)=O (stereo not drawn) [LFA2050, N-[1-(1-methyl-5-nitro-pyrazol-4-yl)ethyl]-N-[7-morpholino-5-[4-(pyrazolo[1,5-a]pyrimidin-5-ylamino)cyclohexoxy]-1,6-naphthyridin-3-yl]methanesulfonamide]	1 to 10	10 to 500	1000 to 10000	1000 to 10000	B (B is 0.05 to 0.15)	B (B is 0.05 to 0.15)
CC(c1cnc([N+](=O)[O-])n1C1CC1)N(c1cnc2cc(N3CCOCC3)nc(OC3CCC(Nc4ccn5nccc5n4)CC3)c2c1)S(C)(=O)=O (stereo not drawn) [LFA2051, N-[1-(3-cyclopropyl-2-nitro-imidazol-4-yl)ethyl]-N-[7-morpholino-5-[4-(pyrazolo[1,5-a]pyrimidin-5-ylamino)cyclohexoxy]-1,6-naphthyridin-3-yl]methanesulfonamide]	10 to 30	10 to 500	1000 to 10000	1000 to 10000	A (A is 0.15 to 1)	D (D is 0 to 0.02)
CC(c1cnn(C)c1[N+](=O)[O-])N(c1cnc2cc(N3CCOCC3)nc(O[C@H]3CC[C@@H](Nc4ncc(C#N)cn4)CC3)c2c1)S(C)(=O)=O (stereo partly drawn) [LFA2052, N-[5-[4-[(5-cyanopyrimidin-2-yl)amino]cyclohexoxy]-7-morpholino-1,6-naphthyridin-3-yl]-N-[1-(1-methyl-5-nitro-pyrazol-4-yl)ethyl]methanesulfonamide]	1 to 10	10 to 500	500 to 1000	1000 to 10000	B (B is 0.05 to 0.15)	C (C is 0.02 to 0.05)
CC(c1cnc([N+](=O)[O-])n1C)N(c1cnc2cc(N3CCOCC3)nc(O[C@H]3CC[C@@H](Nc4ncc(CN5CCOCC5)cn4)CC3)c2c1)S(C)(=O)=O (stereo partly drawn) [LFA2053, N-[1-(3-methyl-2-nitro-imidazol-4-yl)ethyl]-N-[7-morpholino-5-[4-[[5-(morpholinomethyl)pyrimidin-2-yl]amino]cyclohexoxy]-1,6-naphthyridin-3-yl]methanesulfonamide]	10 to 30	10 to 500	500 to 1000	1000 to 10000	B (B is 0.05 to 0.15)	D (D is 0 to 0.02)
CC(c1cnc([N+](=O)[O-])n1C)N(c1cnc2cc(N3CCOCC3)nc(O[C@H]3CC[C@@H](Nc4ncc(OCCN5CCOCC5)cn4)CC3)c2c1)S(C)(=O)=O (stereo partly drawn) [LFA2054, N-[1-(3-methyl-2-nitro-imidazol-4-yl)ethyl]-N-[7-morpholino-5-[4-[[5-(2-morpholinoethoxy)pyrimidin-2-yl]amino]cyclohexoxy]-1,6-naphthyridin-3-yl]methanesulfonamide]	10 to 30	10 to 500	500 to 1000	10000 to 100000	B (B is 0.05 to 0.15)	D (D is 0 to 0.02)
CC(c1cnc([N+](=O)[O-])n1C1CC1)N(c1cnc2cc(N3CCOCC3)nc(O[C@H]3CC[C@@H](Nc4ncccn4)CC3)c2c1)S(C)(=O)=O (stereo partly drawn) [LFA2055, N-[1-(3-cyclopropyl-2-nitro-imidazol-4-yl)ethyl]-N-[7-morpholino-5-[4-(pyrimidin-2-ylamino)cyclohexoxy]-1,6-naphthyridin-3-yl]methanesulfonamide]	1 to 10	10 to 500	10 to 500	1000 to 10000	A (A is 0.15 to 1)	D (D is 0 to 0.02)
CC(c1cnn(C)c1[N+](=O)[O-])N(c1cnc2cc(N3CCOCC3)nc(O[C@H]3CC[C@@H](Nc4ncccn4)CC3)c2c1)S(C)(=O)=O (stereo partly drawn) [LFA2056, N-[1-(1-methyl-5-nitro-pyrazol-4-yl)ethyl]-N-[7-morpholino-5-[4-(pyrimidin-2-ylamino)cyclohexoxy]-1,6-naphthyridin-3-yl]methanesulfonamide]	1 to 10	10 to 500	10 to 500	1000 to 10000	C (C is 0.02 to 0.05)	C (C is 0.02 to 0.05)
Cn1ncc(CN(c2cnc3cc(N4CCOCC4)nc(O[C@H]4CC[C@@H](Nc5ncccn5)CC4)c3c2)S(C)(=O)=O)c1[N+](=O)[O-] [LFA2057, N-[(1-methyl-5-nitro-pyrazol-4-yl)methyl]-N-[7-morpholino-5-[4-(pyrimidin-2-ylamino)cyclohexoxy]-1,6-naphthyridin-3-yl]methanesulfonamide]	1 to 10	10 to 500	10 to 500	1000 to 10000	A (A is 0.15 to 1)	B (B is 0.05 to 0.15)
CS(=O)(=O)N(Cc1cnc([N+](=O)[O-])n1C1CC1)c1cnc2cc(N3CCOCC3)nc(O[C@H]3CC[C@@H](Nc4ncccn4)CC3)c2c1 [LFA2058, N-[(3-cyclopropyl-2-nitro-imidazol-4-yl)methyl]-N-[7-morpholino-5-[4-(pyrimidin-2-ylamino)cyclohexoxy]-1,6-naphthyridin-3-yl]methanesulfonamide]	1 to 10	10 to 500	10 to 500	1000 to 10000	B (B is 0.05 to 0.15)	C (C is 0.02 to 0.05)
CN1CCN(CCOc2cnc(N[C@H]3CC[C@@H](Oc4nc(N5CCOCC5)cc5ncc(N(Cc6cnc([N+](=O)[O-])n6C)S(C)(=O)=O)cc45)CC3)nc2)CC1 [LFA2059, N-[(3-methyl-2-nitro-imidazol-4-yl)methyl]-N-[5-[4-[[5-[2-(4-methylpiperazin-1-yl)ethoxy]pyrimidin-2-yl]amino]cyclohexoxy]-7-morpholino-1,6-naphthyridin-3-yl]methanesulfonamide]	1 to 10	1000 to 10000	1000 to 10000	1000 to 10000	B (B is 0.05 to 0.15)	D (D is 0 to 0.02)
CC(c1cnc([N+](=O)[O-])n1C)N(c1cnc2cc(N3CCOCC3)nc(O[C@H]3CC[C@@H](Nc4ncc(OCCN5CCN(C)CC5)cn4)CC3)c2c1)S(C)(=O)=O (stereo partly drawn) [LFA2060, N-[1-(3-methyl-2-nitro-imidazol-4-yl)ethyl]-N-[5-[4-[[5-[2-(4-methylpiperazin-1-yl)ethoxy]pyrimidin-2-yl]amino]cyclohexoxy]-7-morpholino-1,6-naphthyridin-3-yl]methanesulfonamide]	10 to 30	500 to 1000	1000 to 10000	10000 to 100000	A (A is 0.15 to 1)	D (D is 0 to 0.02)
CC(c1cnc([N+](=O)[O-])n1C)N(c1cnc2cc(N3CCOCC3)nc(O[C@H]3CC[C@@H](Nc4ncc(OCCN(C)C)cn4)CC3)c2c1)S(C)(=O)=O (stereo partly drawn) [LFA2061, N-[5-[4-[[5-[2-(dimethylamino)ethoxy]pyrimidin-2-yl]amino]cyclohexoxy]-7-morpholino-1,6-naphthyridin-3-yl]-N-[1-(3-methyl-2-nitro-imidazol-4-yl)ethyl]methanesulfonamide]	10 to 30	500 to 1000	1000 to 10000	10000 to 100000	B (B is 0.05 to 0.15)	D (D is 0 to 0.02)
CN1CCC(Oc2cnc(N[C@H]3CC[C@@H](Oc4nc(N5CCOCC5)cc5ncc(N(Cc6cnn(C)c6[N+](=O)[O-])S(C)(=O)=O)cc45)CC3)nc2)C1 (stereo partly drawn) [LFA2062, N-[(1-methyl-5-nitro-pyrazol-4-yl)methyl]-N-[5-[4-[[5-(1-methylpyrrolidin-3-yl)oxypyrimidin-2-yl]amino]cyclohexoxy]-7-morpholino-1,6-naphthyridin-3-yl]methanesulfonamide]	1 to 10	10 to 500	500 to 1000	1000 to 10000	B (B is 0.05 to 0.15)	B (B is 0.05 to 0.15)
CC(Oc1cnc2cc(N3CCOCC3)nc(O[C@H]3CC[C@@H](N(C)c4ncccn4)CC3)c2c1)c1cnc([N+](=O)[O-])n1C (stereo partly drawn) [LFA2063, N-methyl-N-[4-[[3-[1-(3-methyl-2-nitro-imidazol-4-yl)ethoxy]-7-morpholino-1,6-naphthyridin-5-yl]oxy]cyclohexyl]pyrimidin-2-amine]	10 to 30	10 to 500	1000 to 10000	1000 to 10000	A (A is 0.15 to 1)	B (B is 0.05 to 0.15)
